The target in data set [1] is T1, CYP2C9 (Homo sapiens, UniProt P11712).
T1 construct: tissue BD-Gentest 452117; host or cells: human liver microsomes
Description: CYP inhibition assay in human liver microsome, CYP2C9. Format: in vitro ADME. The conditions noted are these: human, human liver microsomes, probe diclofenac 5 μM, substrate diclofenac 5 μM, first value of 2C9/2D6/3A4. The method in brief:
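Pooled human liver microsomes with a substrate for each CYP were incubated with compound at 37 °C after NADPH addition, for 5 min (CYP2D6: 10 min), then quenched with acetonitrile containing labelled metabolite standards. Metabolite/internal-standard peak area ratios were measured by RapidFire MS/MS. % inhibition was scaled between DMSO and standard-inhibitor controls.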
On the technique in general: Liver microsomes are a subcellular fraction often used to study metabolism.

In data set [2] the target is T2, human TLR8 (Homo sapiens, UniProt Q9NR97).
T2 construct: host or cells: HEK293 (HEK-Blue hTLR8)
T2 sequence (Q9NR97 27-1041): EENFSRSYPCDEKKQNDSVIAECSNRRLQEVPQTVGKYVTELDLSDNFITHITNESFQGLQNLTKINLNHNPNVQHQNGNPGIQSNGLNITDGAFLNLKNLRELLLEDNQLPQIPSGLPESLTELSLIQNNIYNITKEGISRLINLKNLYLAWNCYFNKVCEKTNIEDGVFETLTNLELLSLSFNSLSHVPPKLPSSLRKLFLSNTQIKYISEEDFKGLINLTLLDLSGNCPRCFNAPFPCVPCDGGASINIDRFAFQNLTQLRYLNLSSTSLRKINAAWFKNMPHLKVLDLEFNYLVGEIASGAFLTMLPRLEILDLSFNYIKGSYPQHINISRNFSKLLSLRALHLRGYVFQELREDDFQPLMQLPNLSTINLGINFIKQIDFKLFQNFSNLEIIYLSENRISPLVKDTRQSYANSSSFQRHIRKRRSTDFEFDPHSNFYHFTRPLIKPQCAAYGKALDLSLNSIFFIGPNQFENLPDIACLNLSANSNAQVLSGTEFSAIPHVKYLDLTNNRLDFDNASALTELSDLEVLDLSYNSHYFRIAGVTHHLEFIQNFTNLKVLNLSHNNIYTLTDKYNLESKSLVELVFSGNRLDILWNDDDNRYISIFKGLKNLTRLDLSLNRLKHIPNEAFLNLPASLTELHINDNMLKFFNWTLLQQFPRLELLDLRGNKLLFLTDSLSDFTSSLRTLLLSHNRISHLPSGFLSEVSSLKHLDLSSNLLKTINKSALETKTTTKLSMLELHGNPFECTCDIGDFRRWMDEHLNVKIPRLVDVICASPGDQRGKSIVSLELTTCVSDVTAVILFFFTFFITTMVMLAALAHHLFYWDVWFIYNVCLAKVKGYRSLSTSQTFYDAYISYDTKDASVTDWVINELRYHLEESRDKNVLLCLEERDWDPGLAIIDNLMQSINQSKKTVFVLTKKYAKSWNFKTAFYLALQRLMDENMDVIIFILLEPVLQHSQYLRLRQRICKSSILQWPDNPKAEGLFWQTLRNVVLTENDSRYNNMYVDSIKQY
Description: HEK293-Blue-hTLR-8 cells assay (SEAP reporter, R848 stimulation). Format: cell-based. The following applies: HEK293-Blue-hTLR8 cells, R848, 20 hrs; read-out: HEK/hTLR8 IC50. The method, boiled down: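 Antagonism read as reduced R848-induced SEAP reporter secretion, detected by QUANTI-Blue absorbance at 620–655 nm after 2 h. Reporter cells were exposed to compound dilutions in DMEM/10% FBS, 1% DMSO, for 20 h at 37° C.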

The target in data set [3] is T3, CYP2D6 (Homo sapiens, UniProt P10635).
T3 construct: tissue BD-Gentest 452117; host or cells: human liver microsomes
The data set can be described thus: CYP inhibition assay in human liver microsome, CYP2D6. The format is in vitro ADME. The conditions noted are these: human, human liver microsomes, probe dextromethorphan 5 μM, substrate dextromethorphan 5 μM, second value of 2C9/2D6/3A4. As for the experimental part:
This is a high throughput screening assay used for assessment of reversible inhibition of CYP2C9, CYP2D6, and CYP3A4 activity of test compounds in human liver microsome (HLM) in early discovery stage.
10 mM DMSO stock solutions of test compounds were diluted in DMSO to generate 2 mM intermediate stock solution. 250 nL, of intermediate stock solution were transferred in duplicate into 3 separate 384 well microtitre plates (assay-ready plates). A mixture of HLM and each substrate was made up. 45 μL of HLM substrate mix was then transferred to each well of an assay ready plate and mixed. The negative (solvent) and positive controls (standard inhibitor for each CYP) were included in each assay ready plate. The assay ready plate was warmed to 37° C. in an incubator over 10 minutes. 5 μL pre-warmed NADPH regenerating system was added to each incubation well to start the reaction. Final incubation volume was 50 μL. The assay plate then was placed back in the 37° C. incubator. After incubation (10 minutes for CYP2D6) for 5 minutes, incubates were quenched by addition of 50 μL 100% acetonitrile containing internal standards (400 ng/mL 13C6-4′-OH-Diclofenac, 20 ng/mL D3-Dextrorphan and 20 ng/mL D4-1′OH-Midazolam). The supernatants were collected for RapidFire/MS/MS analysis.
RapidFire online solid phase extraction/sample injection system (Agilent) coupled with API4000 triple quadrupole mass spectrometer (AB Sciex) were used for sample analysis. The mobile phase composed of acetonitrile and water supplemented with 0.1% formic acid. A C4 solid phase extraction cartridge is used for sample separation. MS detection is achieved in positive ion MRM mode.
Peak areas for substrate, metabolite and internal standard are determined using the RapidFire integrator software (version 3.6.12009.12296). Peak area ratios (PAR) of metabolite and internal standard (stable-labelled metabolite) are then calculated. The measurement window for each experiment is then defined:
PAR (0% activity)=average PAR for all incubations containing concentrated inhibitor; Par (100% activity)=average PAR for all incubations containing no inhibitor (DMSO controls); % Activity (test inhibitor)=[PAR (test inhibitor)−PAR (0% activity)]/[PAR (100% activity)−PAR (0% activity)]; % Inhibition (test inhibitor)=100-% Activity (test inhibitor).

Molecules are shown by their SMILES.

T3 sequence (P10635 whole entry): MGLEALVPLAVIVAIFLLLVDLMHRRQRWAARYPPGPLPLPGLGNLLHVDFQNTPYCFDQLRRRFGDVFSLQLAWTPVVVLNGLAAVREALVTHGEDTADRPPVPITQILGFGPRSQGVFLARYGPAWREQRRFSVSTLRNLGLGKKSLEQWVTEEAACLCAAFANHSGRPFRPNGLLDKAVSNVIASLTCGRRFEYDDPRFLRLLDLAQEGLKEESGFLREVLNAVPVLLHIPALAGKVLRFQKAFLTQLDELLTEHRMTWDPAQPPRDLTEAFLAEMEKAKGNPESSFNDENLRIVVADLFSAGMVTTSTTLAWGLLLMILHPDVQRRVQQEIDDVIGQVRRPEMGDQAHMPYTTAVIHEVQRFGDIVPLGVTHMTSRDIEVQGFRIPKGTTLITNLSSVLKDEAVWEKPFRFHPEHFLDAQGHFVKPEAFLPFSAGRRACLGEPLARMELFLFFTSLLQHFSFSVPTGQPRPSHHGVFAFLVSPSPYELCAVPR
T1 sequence (P11712 whole entry): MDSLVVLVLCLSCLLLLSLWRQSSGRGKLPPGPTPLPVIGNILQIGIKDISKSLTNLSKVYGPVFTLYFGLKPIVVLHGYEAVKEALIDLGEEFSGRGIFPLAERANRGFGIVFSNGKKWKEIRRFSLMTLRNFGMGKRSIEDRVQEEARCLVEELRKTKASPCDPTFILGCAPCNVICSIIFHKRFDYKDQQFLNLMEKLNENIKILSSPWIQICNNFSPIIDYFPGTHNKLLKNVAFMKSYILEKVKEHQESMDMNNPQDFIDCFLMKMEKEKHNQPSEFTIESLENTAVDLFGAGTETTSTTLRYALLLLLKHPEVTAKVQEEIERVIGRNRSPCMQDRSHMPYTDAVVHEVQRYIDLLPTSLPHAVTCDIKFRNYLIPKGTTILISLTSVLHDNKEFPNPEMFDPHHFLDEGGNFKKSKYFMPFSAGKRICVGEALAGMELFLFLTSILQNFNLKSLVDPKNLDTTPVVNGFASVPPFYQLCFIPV

On to `C[C@@H]1CN(c2ccc(C#N)n3ncc(F)c23)C[C@H](CN2CC(c3ccc(N4CC(C)(N)C4)nc3)C2)O1` [Example 158, 4-[(2S,6R)-2-[[3-[6-(3-amino-3-methyl-azetidin-1-yl)-3-pyridyl]azetidin-1-yl]methyl]-6-methyl-morpholin-4-yl]-3-fluoro-pyrazolo[1,5-a]pyridine-7-carbonitrile], for which the inhibition (in general, the drop in the measured response relative to a control, in per cent) at 5 min, 10 µM in data set [1] was -5.5%. For the same compound, in data set [2], the IC50 turned out to be 0.037 µM. The inhibition at 10 min, 10 µM in data set [3] was -7.5%.

(Values after patent US20210395239A1 (Hoffmann-La Roche Inc., priority 2018, published 2021).)
